Data taken from US10004701B2, “Methods and compositions for treating infection” (UNIVERSITY OF ROCHESTER, priority 2012, dated 2018).
Where a name gives a salt, the structure may show the parent alone. Read-outs that look alike come from different tables or passages of the source.

Columns and labels:
Test in all cases: AK assay 384-well format, Prestwick library screening
E. cloacae = format: cell-based, Enterobacter cloacae; conditions: 50 μM final drug concentration; for fold induction at 50 µM: Enterobacter cloacae, 3 h
[1] = tested on: S. aureus strain USA300-0114; format: cell-based, Staphylococcus aureus; conditions: 50 μM final drug concentration; for fold induction at 50 µM: Staphylococcus aureus, USA300, 3 h
P. aeruginosa = format: cell-based, Pseudomonas aeruginosa; conditions: 50 μM final drug concentration; for fold induction at 50 µM: Pseudomonas aeruginosa, 3 h
K. pneumoniae = format: cell-based, Klebsiella pneumoniae; conditions: 50 μM final drug concentration; for fold induction at 50 µM: Klebsiella pneumoniae, 3 h
E. coli = format: cell-based, Escherichia coli; conditions: for fold induction at 50 µM: Escherichia coli, 3 h
[2] = tested on: A. baumannii strain 98-37-09; format: cell-based, Acinetobacter baumannii; conditions: 50 μM final drug concentration; for fold induction at 50 µM: Acinetobacter baumannii, 983709, 3 h
E. faecium = format: cell-based, Enterococcus faecium; conditions: 50 μM final drug concentration; for fold induction at 50 µM: Enterococcus faecium, 3 h
[3] = 384-well format, cutoff for positive-scoring molecules 3-fold increase, read-out: AK-based Prestwick Library Screening Results, E. cloacae (increase in extracellular AK activity)
[4] = 384-well format, cutoff for positive-scoring molecules 3-fold increase, read-out: AK-based Prestwick Library Screening Results, S. aureus (increase in extracellular AK activity)
[5] = 384-well format, cutoff for positive-scoring molecules 3-fold increase, read-out: AK-based Prestwick Library Screening Results, P. aeruginosa (increase in extracellular AK activity)
[6] = 384-well format, cutoff for positive-scoring molecules 3-fold increase, read-out: AK-based Prestwick Library Screening Results, K. pneumoniae (increase in extracellular AK activity)
[7] = 50 μM final drug concentration, 384-well format, cutoff for positive-scoring molecules 3-fold increase, read-out: AK-based Prestwick Library Screening Results, E. coli (increase in extracellular AK activity)
[8] = 384-well format, cutoff for positive-scoring molecules 3-fold increase, read-out: AK-based Prestwick Library Screening Results, A. baumannii (increase in extracellular AK activity)
[9] = 384-well format, cutoff for positive-scoring molecules 3-fold increase, read-out: AK-based Prestwick Library Screening Results, E. faecium (increase in extracellular AK activity)
[10] = cutoff for positive-scoring molecules 3-fold increase, read-out: AK-based Prestwick Library Screening Results, E. cloacae (fold increase in extracellular AK activity)
[11] = cutoff for positive-scoring molecules 3-fold increase, read-out: AK-based Prestwick Library Screening Results, S. aureus (fold increase in extracellular AK activity)
[12] = cutoff for positive-scoring molecules 3-fold increase, read-out: AK-based Prestwick Library Screening Results, P. aeruginosa (fold increase in extracellular AK activity)
[13] = cutoff for positive-scoring molecules 3-fold increase, read-out: AK-based Prestwick Library Screening Results, K. pneumoniae (fold increase in extracellular AK activity)
[14] = cutoff for positive-scoring molecules 3-fold increase, read-out: AK-based Prestwick Library Screening Results, A. baumannii (fold increase in extracellular AK activity)
[15] = cutoff for positive-scoring molecules 3-fold increase, read-out: AK-based Prestwick Library Screening Results, E. faecium (fold increase in extracellular AK activity)
[16] = planktonic, cutoff for positive 3-fold increase, read-out: AK-based Prestwick Library Screening Results, E. cloacae (fold increase in extracellular AK activity)
[17] = planktonic, cutoff for positive 3-fold increase, read-out: AK-based Prestwick Library Screening Results, S. aureus (fold increase in extracellular AK activity)
[18] = planktonic, cutoff for positive 3-fold increase, read-out: AK-based Prestwick Library Screening Results, P. aeruginosa (fold increase in extracellular AK activity)
[19] = planktonic, cutoff for positive 3-fold increase, read-out: AK-based Prestwick Library Screening Results, K. pneumoniae (fold increase in extracellular AK activity)
[20] = 50 μM final drug concentration, planktonic, cutoff for positive 3-fold increase, read-out: AK-based Prestwick Library Screening Results, E. coli (fold increase in extracellular AK activity)
[21] = planktonic, cutoff for positive 3-fold increase, read-out: AK-based Prestwick Library Screening Results, A. baumannii (fold increase in extracellular AK activity)
[22] = planktonic, cutoff for positive 3-fold increase, read-out: AK-based Prestwick Library Screening Results, E. faecium (fold increase in extracellular AK activity)

## C[C@]12C=CC(=O)C=C1CC[C@@H]1[C@@H]2C(=O)C[C@@]2(C)[C@H]1CC[C@]2(O)C(=O)CO [Prednisone]
E. cloacae; planktonic E. cloacae, 384-well, cutoff for positive-scoring molecules 3-fold increase, read-out: AK-based Prestwick Library Screening Results: E. cloacae (increase in extracellular AK activity)
  fold induction at 50 µM: 1.4
[1]; planktonic S. aureus, 384-well, cutoff for positive-scoring molecules 3-fold increase, read-out: AK-based Prestwick Library Screening Results: S. aureus (increase in extracellular AK activity)
  fold induction at 50 µM: 1.1
P. aeruginosa; planktonic P. aeruginosa, 384-well, cutoff for positive-scoring molecules 3-fold increase, read-out: AK-based Prestwick Library Screening Results: P. aeruginosa (increase in extracellular AK activity)
  fold induction at 50 µM: 0.9
K. pneumoniae; planktonic K. pneumoniae, 384-well, cutoff for positive-scoring molecules 3-fold increase, read-out: AK-based Prestwick Library Screening Results: K. pneumoniae (increase in extracellular AK activity)
  fold induction at 50 µM: 0.9
E. coli; planktonic E. coli, 50 μM final drug concentration, 384-well, cutoff for positive-scoring molecules 3-fold increase, read-out: AK-based Prestwick Library Screening Results: E. coli (increase in extracellular AK activity)
  fold induction at 50 µM: 1.2
[2]; planktonic A. baumannii, 384-well, cutoff for positive-scoring molecules 3-fold increase, read-out: AK-based Prestwick Library Screening Results: A. baumannii (increase in extracellular AK activity)
  fold induction at 50 µM: 1.2
E. faecium; planktonic E. faecium, 384-well, cutoff for positive-scoring molecules 3-fold increase, read-out: AK-based Prestwick Library Screening Results: E. faecium (increase in extracellular AK activity)
  fold induction at 50 µM: 0.9

## CC(=O)[C@H]1CC[C@H]2[C@@H]3CC=C4C[C@@H](O)CC[C@]4(C)[C@H]3CC[C@]12C [Pregnenolone]
E. cloacae; planktonic, […]
  AK-based Prestwick Library Screening Results, E. cloacae (fold increase in extracellular AK activity): 1.5
[1]; planktonic, […]
  AK-based Prestwick Library Screening Results, S. aureus (fold increase in extracellular AK activity): 1.1
P. aeruginosa; planktonic, […]
  AK-based Prestwick Library Screening Results, P. aeruginosa (fold increase in extracellular AK activity): 1.1
K. pneumoniae; planktonic, […]
  AK-based Prestwick Library Screening Results, K. pneumoniae (fold increase in extracellular AK activity): 1.1
E. coli; 50 μM final drug concentration, planktonic, […]
  AK-based Prestwick Library Screening Results, E. coli (fold increase in extracellular AK activity): 1.4
[2]; planktonic, […]
  AK-based Prestwick Library Screening Results, A. baumannii (fold increase in extracellular AK activity): 1.3
E. faecium; planktonic, […]
  AK-based Prestwick Library Screening Results, E. faecium (fold increase in extracellular AK activity): 1.1

## CCCNC(C)C(=O)Nc1ccccc1C (stereo not drawn) [Prilocaine hydrochloride]
E. cloacae; [3]
  fold induction at 50 µM: 1.3
[1]; [4]
  fold induction at 50 µM: 0.8
P. aeruginosa; [5]
  fold induction at 50 µM: 0.9
K. pneumoniae; [6]
  fold induction at 50 µM: 0.7
E. coli; [7]
  fold induction at 50 µM: 0.9
[2]; [8]
  fold induction at 50 µM: 0.9
E. faecium; [9]
  fold induction at 50 µM: 0.9

## CCC1(c2ccccc2)C(=O)NCNC1=O [Primidone]
E. cloacae; [10]
  fold induction at 50 µM: 1.8
[1]; [11]
  fold induction at 50 µM: 1.3
P. aeruginosa; [12]
  fold induction at 50 µM: 1.2
K. pneumoniae; [13]
  fold induction at 50 µM: 0.9
E. coli; read-out: AK-based Prestwick Library Screening Results, E. coli (fold increase in extracellular AK activity)
  fold induction at 50 µM: 1
[2]; [14]
  fold induction at 50 µM: 1.2
E. faecium; [15]
  fold induction at 50 µM: 0.9

## CCCC(C(=O)OCCN(CC)CC)(c1ccccc1)c1ccccc1 [Proadifen hydrochloride]
E. cloacae; [10]
  fold induction at 50 µM: 1.7
[1]; [11]
  fold induction at 50 µM: 0.8
P. aeruginosa; [12]
  fold induction at 50 µM: 1.1
K. pneumoniae; [13]
  fold induction at 50 µM: 0.8
E. coli; 50 μM final drug concentration, cutoff for positive-scoring molecules 3-fold increase, read-out: AK-based Prestwick Library Screening Results, E. coli (fold increase in extracellular AK activity)
  fold induction at 50 µM: 1.2
[2]; [14]
  fold induction at 50 µM: 1.1
E. faecium; [15]
  fold induction at 50 µM: 1.1

## CCCN(CCC)S(=O)(=O)c1ccc(C(=O)O)cc1 [Probenecid]
E. cloacae; [16]
  fold induction at 50 µM: 1.4
[1]; [17]
  fold induction at 50 µM: 1
P. aeruginosa; [18]
  fold induction at 50 µM: 1.2
K. pneumoniae; [19]
  fold induction at 50 µM: 1.1
E. coli; [20]
  fold induction at 50 µM: 1.4
[2]; [21]
  fold induction at 50 µM: 1.3
E. faecium; [22]
  fold induction at 50 µM: 1

## CC(C)(Sc1cc(C(C)(C)C)c(O)c(C(C)(C)C)c1)Sc1cc(C(C)(C)C)c(O)c(C(C)(C)C)c1 [Probucol]
E. cloacae; [16]
  fold induction at 50 µM: 1.3
[1]; [17]
  fold induction at 50 µM: 0.6
P. aeruginosa; [18]
  fold induction at 50 µM: 1.1
K. pneumoniae; [19]
  fold induction at 50 µM: 0.9
E. coli; [20]
  fold induction at 50 µM: 1.1
[2]; [21]
  fold induction at 50 µM: 1.4
E. faecium; [22]
  fold induction at 50 µM: 0.9

## CCN(CC)CCNC(=O)c1ccc(N)cc1 [Procainamide hydrochloride]
E. cloacae; planktonic E. cloacae, cutoff for positive-scoring molecules 3-fold increase, read-out: AK-based Prestwick Library Screening Results, E. cloacae (increase in extracellular AK activity)
  fold induction at 50 µM: 0.9
[1]; planktonic S. aureus, cutoff for positive-scoring molecules 3-fold increase, read-out: AK-based Prestwick Library Screening Results, S. aureus (increase in extracellular AK activity)
  fold induction at 50 µM: 0.6
P. aeruginosa; planktonic P. aeruginosa, cutoff for positive-scoring molecules 3-fold increase, read-out: AK-based Prestwick Library Screening Results, P. aeruginosa (increase in extracellular AK activity)
  fold induction at 50 µM: 0.6
K. pneumoniae; planktonic K. pneumoniae, cutoff for positive-scoring molecules 3-fold increase, read-out: AK-based Prestwick Library Screening Results, K. pneumoniae (increase in extracellular AK activity)
  fold induction at 50 µM: 0.6
E. coli; planktonic E. coli, 50 μM final drug concentration, cutoff for positive-scoring molecules 3-fold increase, read-out: AK-based Prestwick Library Screening Results, E. coli (increase in extracellular AK activity)
  fold induction at 50 µM: 0.6
[2]; planktonic A. baumannii, cutoff for positive-scoring molecules 3-fold increase, read-out: AK-based Prestwick Library Screening Results, A. baumannii (increase in extracellular AK activity)
  fold induction at 50 µM: 0.7
E. faecium; planktonic E. faecium, cutoff for positive-scoring molecules 3-fold increase, read-out: AK-based Prestwick Library Screening Results, E. faecium (increase in extracellular AK activity)
  fold induction at 50 µM: 1

## CCN(CC)CCOC(=O)c1ccc(N)cc1 [Procaine hydrochloride]
E. cloacae; [3]
  fold induction at 50 µM: 1.4
[1]; [4]
  fold induction at 50 µM: 1.2
P. aeruginosa; [5]
  fold induction at 50 µM: 1
K. pneumoniae; [6]
  fold induction at 50 µM: 1
E. coli; [7]
  fold induction at 50 µM: 1.2
[2]; [8]
  fold induction at 50 µM: 1.1
E. faecium; [9]
  fold induction at 50 µM: 0.9
